Laboratory results from patent US7259136B2, “Compositions and methods for treating peripheral vascular disease” (Amylin Pharmaceuticals, Inc., priority 1999, dated 2007).
Where no end group is shown, it is not given here.

How the values were obtained:
[1] = tested on: pancreas; conditions: cited from earlier work
[2] = tested on: Cardiac Muscle Ischemia and Reperfusion; test: LAD coronary artery occlusion (25 min) and reperfusion (2 h) in anesthetized rats; assay type: in vivo, Wistar rats
Description: Wistar rats were anesthetized with thiopentone sodium. The left anterior descending (LAD) coronary artery was occluded. After 25 minutes of occlusion, reperfusion was allowed for 2 hours. This animal model has been described previously. Zacharowski, et al. […] Br. J. Pharmacol. 128, 945–952.
GLP-1 (1.5 microgram/kg/min) was infused into anesthetized rats (n=10), commencing 10 minutes prior to reperfusion and continuing throughout the 2-hour reperfusion. Controls were sham operated with no occlusion (n=7), LAD occlusion+reperfusion+administration of saline (n=12), and LAD occlusion and reperfusion with vehicle (10 mM sodium acetate, 5.05% D-mannitol, pH 4.5, 1.5 mL/kg/hour; n=10).
Following reperfusion, the coronary artery was reoccluded, and Evans Blue dye (4 ml, 2% w/v) was injected into the left ventricle of the heart via a right carotid artery cannula. Evans Blue stains the perfused myocardium, while the occluded vascular bed remains uncolored. Animals were euthanized by anesthetic overdose and the hearts were removed for examination. Hearts were sectioned and the right ventricular wall was removed. The area at risk (pink) was separated from the non-ischemic tissue (blue). The area at risk (pink) was then cut into smaller pieces and stained with p-nitroblue tetrazolium (NBT; 0.5 mg/ml) for 20 min. at 37° C. In the presence of intact dehydrogenase enzyme systems (viable myocardium), NBT forms a dark blue compound. Areas of necrosis lack the enzyme and remain unstained. Tissue was separated according to staining and weighed to determine infarct size as a percentage of the area at risk.

[3] = tested on: Cardiac Muscle Ischemia and Reperfusion; test: Left circumflex coronary occlusion (10 min) and reperfusion in dogs; assay type: in vivo
Description: Two dogs were studied at baseline before, during, and for 6 hours after a 10-minute complete left circumflex coronary (LCx) occlusion. Each dog underwent occlusion/reperfusion in the presence and absence of GLP-1 infusion for […], beginning 1 minute prior to reperfusion.

Substance	stimulation of production or release of insulin from the pancreas [1]	infarct size as a percentage of the area at risk ([2]; GLP-1 1.5 microgram/kg/min infusion from 10 min prior to reperfusion throughout 2-hour reperfusion, n=10)	reduction in infarct size compared with the vehicle group ([2]; GLP-1 1.5 microgram/kg/min infusion, p<0.05)	hemodynamics ([2]; GLP-1 infusion)	stunning period ([3]; dogs, GLP-1 during reperfusion after subcritical ischemia)	recovery of ventricular wall regional dysfunction ([3]; two dogs, GLP-1 infusion for 24 hours beginning 1 minute prior to reperfusion, after 10 minutes of coronary artery occlusion)
GLP-1(9-36)amide: DPP IV inactivation product of GLP-1(7-36)amide, SEQ ID NO:6 (EGTFTSDVSSYLEGQAAKEFIAWLVKGR-NH2)	do not stimulate production or release of insulin					
GLP-1(9-37): DPP IV inactivation product of GLP-1(7-37), SEQ ID NO:5 (EGTFTSDVSSYLEGQAAKEFIAWLVKGRG; mammalian)	do not stimulate production or release of insulin					
glucagon-like peptide-1 [GLP-1]		31+/−4 % of the area at risk	approximately 33%	significantly improved hemodynamics	significantly reduced the stunning period	enhanced the recovery of ventricular wall regional dysfunction
